Source: patent US20040086942A1, “Ige receptor antagonists” (priority 2003, published 2004)
Where a SMILES comes first, the peptide text is derived from it. Bridges are numbered along the chain shown (N, C = ends). [ ]: non-standard residue; d: D form.

Columns and labels:
[1] = biological target: T1, alpha subunit of the human FcεRI receptor (Homo sapiens, UniProt P12319); test: cell-based 125I-IgE binding inhibition assay on CHO FcεRI+ cells; conditions: for fold reduction in inhibition/binding: truncations and alanine substitutions of IGE063
T1 construct: expressed in transfected cells; host or cells: Chinese hamster ovary (CHO FcεRI+) cells
T1 sequence (P12319 26-257): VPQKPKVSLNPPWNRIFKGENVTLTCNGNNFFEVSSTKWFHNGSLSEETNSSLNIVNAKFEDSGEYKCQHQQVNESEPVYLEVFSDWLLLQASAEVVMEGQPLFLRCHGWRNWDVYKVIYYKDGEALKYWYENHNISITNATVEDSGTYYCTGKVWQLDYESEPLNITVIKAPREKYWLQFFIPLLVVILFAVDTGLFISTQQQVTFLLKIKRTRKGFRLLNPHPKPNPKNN
Method in brief: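 Peptides, serially diluted 1:3 from 50-500 uM, preincubated 1 h at room temperature on CHO cells expressing human FcεRI alpha, then 1.5 nM 125I-IgE added for 45-60 min at 4 °C. Buffer F12/DMEM, 1% BSA, 0.05% NaN3, pH 7.2. Bound counts by gamma counting; IC50 from 4-parameter fits.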

[2] = 2D NMR structural score versus reference peptide; type: physicochemical; design: key to Struct. Score: +++ indicates the peptide is structured similarly to IGE063 (SEQ ID NO:49); + indicates the peptide is structured similarly to IGE063 (SEQ ID NO:49), but is less stable; −/+ indicates the peptide has some elements of stable structure, but the conformation differs from the reference structure (e.g., a different turn type is evident); − indicates the peptide is predominantly unstructured in aqueous solution; conditions: reference IGE063
Method: Peptides were evaluated by 2D NMR spectroscopy to assess the effect of substitutions on the three-dimensional structure of the peptide analog. All peptides with a structural score indicated in Table 5 were analyzed by 2D NMR spectroscopy; backbone ^1H resonances were assigned and ^3JHN-Hα coupling constants were measured and compared to the reference peptide (IGE063, SEQ ID NO:49; see Example 5). Peptides are defined to be of similar structure to the reference peptide provided chemical shifts, coupling constants, and NOEs are consistent with that structure.
A structural score was assigned to peptides analyzed by 2D NMR spectroscopy. For each of these peptides, backbone ^1H resonances have been assigned, and the ^3JHN-Ha coupling constants have been measured and compared to the reference peptide (i.e., IGE134 (SEQ ID NOS:155, 171)). Peptides are defined to be of similar structure to the reference peptide provided. chemical shifts, coupling constants, and NOEs are consistent with that structure.

SMILES | fold reduction in inhibition/binding [1] | Struct. Score [2] | IC50 ([1]; inhibition of labeled IgE-binding to CHO FcεRI+ cells, read-out: Mean IC50(uM) ± S.D.)
CSCC[C@H](NC(=O)[C@@H]1CSSC[C@H](NC(=O)[C@H](CCCNC(=N)N)NC(=O)[C@@H]2CCCN2C(=O)[C@H](CC(C)C)NC(=O)[C@@H](N)CC(N)=O)C(=O)N[C@@H]([C@@H](C)O)C(=O)N[C@@H](CCC(=O)O)C(=O)NCC(=O)N2CCC[C@H]2C(=O)N[C@@H](Cc2c[nH]c3ccccc23)C(=O)NCC(=O)N[C@@H](C)C(=O)N[C@@H](C(C)C)C(=O)N1)C(=O)O [IGE073, NLPRCTEGPWGAVCM] (H-NLPRCTEGPWGAVCM-OH; disulfide 5-14; N-terminus and C-terminus assumed) | 65 fold | + | –
CSCC[C@H](NC(=O)[C@@H]1CSSC[C@H](NC(=O)[C@H](CCCNC(=N)N)NC(=O)[C@@H]2CCCN2C(=O)[C@H](CC(C)C)NC(=O)[C@@H](N)CC(N)=O)C(=O)N[C@@H]([C@@H](C)O)C(=O)N[C@@H](CCC(=O)O)C(=O)NCC(=O)N2CCC[C@H]2C(=O)N[C@@H](Cc2c[nH]c3ccccc23)C(=O)N[C@@H](C)C(=O)N[C@@H](Cc2c[nH]c3ccccc23)C(=O)N[C@@H](C(C)C)C(=O)N1)C(=O)O [IGE074, NLPRCTEGPWAWVCM] (H-NLPRCTEGPWAWVCM-OH; disulfide 5-14) | 30 fold | + | –
CSCC[C@H](NC(=O)[C@@H]1CSSC[C@H](NC(=O)[C@H](CCCNC(=N)N)NC(=O)[C@@H]2CCCN2C(=O)[C@H](CC(C)C)NC(=O)[C@@H](N)CC(N)=O)C(=O)N[C@@H]([C@@H](C)O)C(=O)N[C@@H](CCC(=O)O)C(=O)N[C@@H](C)C(=O)N2CCC[C@H]2C(=O)N[C@@H](Cc2c[nH]c3ccccc23)C(=O)NCC(=O)N[C@@H](Cc2c[nH]c3ccccc23)C(=O)N[C@@H](C(C)C)C(=O)N1)C(=O)O [IGE079, NLPRCTEAPWGWVCM] (H-NLPRCTEAPWGWVCM-OH; disulfide 5-14; N-terminus and C-terminus assumed) | 256 fold | +++ | –
CSCC[C@H](NC(=O)[C@@H]1CSSC[C@H](NC(=O)[C@H](CCCNC(=N)N)NC(=O)[C@@H]2CCCN2C(=O)[C@H](CC(C)C)NC(=O)[C@H](CC(N)=O)NC(C)=O)C(=O)N[C@@H]([C@@H](C)O)C(=O)N[C@@H](CCC(=O)O)C(=O)NCC(=O)N2CCC[C@H]2C(=O)N[C@@H](Cc2c[nH]c3ccccc23)C(=O)N[C@H](CCC(=O)O)C(=O)N[C@@H](Cc2c[nH]c3ccccc23)C(=O)N[C@@H](C(C)C)C(=O)N1)C(=O)O [IGE114, Ac-NLPRCTEGPWeWVCM] (Ac-NLPRCTEGPW[dE]WVCM-OH; disulfide 5-14) | – | +++ | 1.7 µM
